# Marks after values point to notes of the source that are not given here.
# Key:
# [1] = reported in the literature; cited from earlier work
# [2] = in vivo; cited from earlier work
# Frings mouse = assay: Rotarod motor impairment (toxicity) in the Frings mouse; type: in vivo; conditions: for Number Showing Toxicity of Eight Mice Tested at 30 minutes / Number Showing Toxicity of Eight Mice Tested at 120 minutes: Table 5; for Number Showing Toxicity of Four Mice Tested at 30 minutes / Number Showing Toxicity of Four Mice Tested at 120 minutes: Table 4
# Experimental: (§1) The average seizure score can be calculated for each group of mice employed in the dose-response study. At each dose, mice are also tested on a rotarod for testing of motor impairment (toxicity). Testing for motor impairment on the rotarod involves placing a mouse for a three-minute trial period on a one-inch diameter rod rotating at six revolutions per minute. If the mouse falls off of the rotating rod three times within the three-minute time period, it is considered a toxic response.
# [3] = system: Frings audiogenic seizure-susceptible mouse; assay: Frings audiogenic seizure-susceptible mouse model of epilepsy; type: in vivo; conditions: for anticonvulsant activity when administered orally: oral
# Source text: One useful model is provided by the Frings audiogenic seizure-susceptible mouse, a model of reflex epilepsy. At the time of testing, individual mice are placed into a round Plexiglas chamber and exposed to a sound stimulus of 110 decibels, 11 kHz, for 20 seconds. Animals not displaying tonic hindlimb extensions were considered protected. In addition, the seizure score for each mouse can be recorded as: (1) running for less than 10 seconds; (2) running for greater than 10 seconds; (3) clonic activity of limbs and/or vibrissae; (4) forelimb extension/hindlimb flexion; and (5) hindlimb extension.
# as §1
# rat = assay: Rotarod Test in the Rat; type: in vivo; conditions: for Number of Rats Falling: ten rats per group
# Experimental: This is a test of neurological deficits using the method described by Dunham et al., J. Am. Pharm. Assoc. 46: 208-09 (1957). Rats or mice are placed on a rod rotating at a speed of eight turns per minute. The number of animals which drop off the rod before three minutes is counted and the drop-off times are recorded (maximum: 180 seconds). Ten rats are studied per group and the test is performed blind. The test compound is administered i.p. 60 minutes prior to testing. Diazepam, a benzodiazepine, is administered at 8 mg/kg, i.p., as the reference substance. A control group administered the vehicle is also included in the study.
# [4] = 4 mg/kg i.p. 60 minutes before test
# [5] = 8 mg/kg i.p. 60 minutes before test
smiles,measurement,setting,value
"CC(C)CC(=O)O [Isovaleric acid, isovaleric acid]",anticonvulsant activity,[1],inactive as an anticonvulsant
"CCN(CC)C(=O)CC(C)C [N,N-Diethyl isovaleramide]",CNS properties,[2],CNS stimulant (convulsant) properties
CC(C)C(C)C(N)=O (stereo not shown) [2-methylisovaleramide],Number Showing Toxicity of Eight Mice Tested at 30 minutes,Frings mouse; 30 mg/kg oral,0
same,Number Showing Toxicity of Eight Mice Tested at 120 minutes,Frings mouse; 30 mg/kg oral,0
same,Number Showing Toxicity of Eight Mice Tested at 30 minutes,Frings mouse; 100 mg/kg oral,0
same,Number Showing Toxicity of Eight Mice Tested at 120 minutes,Frings mouse; 100 mg/kg oral,0
same,Number Showing Toxicity of Eight Mice Tested at 30 minutes,Frings mouse; 300 mg/kg oral,2^a
same,Number Showing Toxicity of Eight Mice Tested at 120 minutes,Frings mouse; 300 mg/kg oral,0
same,signs of toxicity in the animals counted as toxic,"Frings mouse; Table 5 footnote, 300 mg/kg oral, 30 minutes","^ano definitive signs of toxicity such as sedation or ataxia, animals just fell off"
same,Number Protected of Four Mice Tested at 30 minutes,"[3]; Table 5, 30 mg/kg oral",0
same,Number Protected of Four Mice Tested at 120 minutes,"[3]; Table 5, 30 mg/kg oral",0
same,Number Protected of Four Mice Tested at 30 minutes,"[3]; Table 5, 100 mg/kg oral",1
same,Number Protected of Four Mice Tested at 120 minutes,"[3]; Table 5, 100 mg/kg oral",0
same,Number Protected of Four Mice Tested at 30 minutes,"[3]; Table 5, 300 mg/kg oral",4
same,Number Protected of Four Mice Tested at 120 minutes,"[3]; Table 5, 300 mg/kg oral",1
same,anticonvulsant activity when administered orally,[3],displayed anticonvulsant activity when administered orally
"CN1C(=O)CN=C(c2ccccc2)c2cc(Cl)ccc21 [Diazepam, diazepam]",Drop-Off Time % change from control,rat; [4],−59%
same,Drop-Off Time (sec) Mean ± S.E.M.,rat; [4],55.8 ± 20.6^d sec
same,Number of Rats Falling,rat; [4],9
same,Drop-Off Time % change from control,rat; [5],−88%
same,Drop-Off Time (sec) Mean ± S.E.M.,rat; [5],16.3 ± 6.4^f sec
same,Number of Rats Falling,rat; [5],10+ ^e
same,rotarod performance in the rat,"rat; i.p. 60 minutes before test, isovaleramide 128, 256 and 512 mg/kg",dose-dependently decreased rotarod performance
CC(C)CC(=O)NCC(N)=O [N-(2-acetamido)isovaleramide],Number Showing Toxicity of Four Mice Tested at 30 minutes,Frings mouse; 30 mg/kg oral,0
same,Number Showing Toxicity of Four Mice Tested at 120 minutes,Frings mouse; 30 mg/kg oral,0
same,Number Showing Toxicity of Four Mice Tested at 30 minutes,Frings mouse; 100 mg/kg oral,0
same,Number Showing Toxicity of Four Mice Tested at 120 minutes,Frings mouse; 100 mg/kg oral,0
same,Number Showing Toxicity of Four Mice Tested at 30 minutes,Frings mouse; 300 mg/kg oral,0
same,Number Showing Toxicity of Four Mice Tested at 120 minutes,Frings mouse; 300 mg/kg oral,0
same,Number Showing Toxicity of Four Mice Tested at 30 minutes,Frings mouse; 1000 mg/kg oral,1
same,Number Showing Toxicity of Four Mice Tested at 120 minutes,Frings mouse; 1000 mg/kg oral,0
same,Number Protected of Four Mice Tested at 30 minutes,"[3]; Table 4, 30 mg/kg oral",0
same,Number Protected of Four Mice Tested at 120 minutes,"[3]; Table 4, 30 mg/kg oral",0
same,Number Protected of Four Mice Tested at 30 minutes,"[3]; Table 4, 100 mg/kg oral",0
same,Number Protected of Four Mice Tested at 120 minutes,"[3]; Table 4, 100 mg/kg oral",0
same,Number Protected of Four Mice Tested at 30 minutes,"[3]; Table 4, 300 mg/kg oral",0
same,Number Protected of Four Mice Tested at 120 minutes,"[3]; Table 4, 300 mg/kg oral",0
same,Number Protected of Four Mice Tested at 30 minutes,"[3]; Table 4, 1000 mg/kg oral",3
same,Number Protected of Four Mice Tested at 120 minutes,"[3]; Table 4, 1000 mg/kg oral",4
same,anticonvulsant activity when administered orally,[3],displayed anticonvulsant activity when administered orally
